Data: patent US20190037899A1, “Intramolecular Trans-Sialidase” (THE INSTITUTE OF FOOD RESEARCH, priority 2016, published 2019)

How the values were obtained:
[1] = molecular target: T1, sialic acid aldolase (Escherichia coli, UniProt P0A6L4); assay: Degradation of 2,7-anhydro-Neu5Ac by sialic acid aldolase; type: biochemical
T1 construct: purchased Carbosynth Limited (Compton, UK)
Procedure: A dialysis membrane (7K MWCO) containing fetuin (0.3 mM) was incubated in 100 mM ammonium formate buffer pH 6.5 for 2 h at 37° C. under gentle shaking (115 rpm). Following the addition of 50 nM RgNanH (in Tris buffer 40 mM pH 7.9) into the dialysis membrane, the reaction mixture was further incubated in 100 mM ammonium formate buffer (pH 6.5) at 115 rpm, 37° C. for 24 h. Sialic acid aldolase (17.4 units in 100 mM ammonium formate) was added to the membrane enclosed reaction mixture. Following a further 20 h incubation at 115 rpm and 37° C., 100 mL of buffer was recovered, diluted with 100 mL of ultrapure water and freeze dried. The membrane enclosed reaction mixture was dialysed with 100 mL ultrapure water for 2 h and again overnight under 115 rpm shaking and at 37° C. The water was recovered, mixed with the dried synthesis buffer and freeze dried. After complete dryness, the powder was dissolved in 100 mL ultrapure water and freeze dried again 3 times to remove volatile salts.
Considering the difficulty and the low efficiency of the separation of free Neu5Ac from 2,7-anhydro-Neu5Ac, a commercially available sialic acid aldolase from E. coli was introduced into the dialysis membrane with RgNanH and fetuin. […]

[2] = tested on: R. gnavus strains (ATCC 29149 and ATCC 35913); assay: Growth of R. gnavus strains on 2,7-anhydro-Neu5Ac as sole carbon source; type: cell-based, Ruminococcus gnavus; details: anaerobic
Procedure: The ability of pathogens to utilise 2,7-anhydroSA as a potential nutrient by growing the cells in presence of 2,7-anhydroSA (or sialic acid as a control) as sole carbon source under anaerobic conditions is tested. […] The ability of these pathogens to utilise 2,7-anhydro-Neu5Ac is tested by growing the cells in vitro with 2,7-anhydro-Neu5Ac synthesised using the enzymatic synthesis as described above, as sole carbon source. Growth is determined spectrophotometrically and analysed using an appropriately developed DMFit program to compare the effect of the carbon source on growth rates. The impact of ITS on the ability of pathogens to grow on mucins purified from human “goblet-like” cells is tested in co-culture experiments with R. gnavus strains (ATCC 29149 expressing ITS and E1 as a negative control) in anaerobic continuous reactors.

[3] = Spontaneous conversion of 2,7-anhydro-Neu5Ac to Neu5Ac (1H NMR, HPAEC-PAD); type: physicochemical; details: up to 24 h at 37° C.

T1 sequence (P0A6L4 whole entry): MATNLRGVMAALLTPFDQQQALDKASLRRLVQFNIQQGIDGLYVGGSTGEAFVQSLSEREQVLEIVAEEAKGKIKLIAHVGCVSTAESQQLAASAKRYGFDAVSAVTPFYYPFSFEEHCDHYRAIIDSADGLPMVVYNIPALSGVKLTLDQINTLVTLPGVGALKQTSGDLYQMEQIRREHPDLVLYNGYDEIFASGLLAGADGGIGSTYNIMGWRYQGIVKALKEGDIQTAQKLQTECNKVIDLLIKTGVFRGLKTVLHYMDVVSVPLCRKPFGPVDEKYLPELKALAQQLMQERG

SMILES: CC(=O)N[C@H]1[C@H]2O[C@@](C(=O)O)(C[C@@H]1O)O[C@@H]2[C@H](O)CO [2,7-anhydro-Neu5Ac, 2,7-anhydro-α-N-acetylneuraminic acid]
- Degradation by sialic acid aldolase [1]: resistant to degradation
- Growth of R. gnavus strains on the compound as sole carbon source [2]: able to grow
- Spontaneous conversion of 2,7-anhydro-Neu5Ac to Neu5Ac [3]: no spontaneous conversion
